From patent US9839629B2, “Inhibitors of the renal outer medullary potassium channel” (Merck Sharp & Dohme Corp., priority 2013, dated 2017)

The compounds below were run against T1, ROMK (Kir1.1) channel (Homo sapiens, UniProt P48048) (assay: Thallium Flux Assay).
T1 sequence (P48048 1-391): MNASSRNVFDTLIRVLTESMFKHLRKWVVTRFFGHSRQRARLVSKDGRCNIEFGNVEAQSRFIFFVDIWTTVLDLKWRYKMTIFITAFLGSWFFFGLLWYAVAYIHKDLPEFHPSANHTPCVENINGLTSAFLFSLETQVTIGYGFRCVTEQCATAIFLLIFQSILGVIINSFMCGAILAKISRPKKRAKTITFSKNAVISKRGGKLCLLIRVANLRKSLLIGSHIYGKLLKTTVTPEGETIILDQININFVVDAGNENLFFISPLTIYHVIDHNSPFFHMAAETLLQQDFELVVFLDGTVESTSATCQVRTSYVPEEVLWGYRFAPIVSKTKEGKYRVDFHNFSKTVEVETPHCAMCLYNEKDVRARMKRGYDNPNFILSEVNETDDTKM
Format: cell-based
Method in brief: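 Thallium flux assay as described in WO 2013/062900. Compounds supplied as HCl salts were tested in salt form.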
With `O=C1C=C(N2CCC3(CCN(C(=O)Cc4cc(F)c(-n5cnnn5)cc4F)CC3)CC2)CO1` [Example 104, 4-(9-{[2,5-difluoro-4-(1H-tetrazol-1-yl)phenyl]acetyl}-3,9-diazaspiro[5.5]undec-3-yl)furan-2(5H)-one] the IC50 was 0.115 µM. `Cc1c(CC(=O)N2CCC3(CC2)CCN(C2=CC(=O)OC2)CC3)ccc2c1COC2=O` [Example 105, 4-methyl-5-{2-oxo-2-[9-(5-oxo-2,5-dihydrofuran-3-yl)-3,9-diazaspiro[5.5]undec-3-yl]ethyl}-2-benzofuran-1(3H)-one] showed an IC50 of 0.483 µM. `O=C1C=C(N2CCC3(CCN(C(=O)Cc4cnc(-n5cnnn5)cn4)CC3)CC2)CO1` [Example 106, 4-(9-{[5-(1H-tetrazol-1-yl)pyrazin-2-yl]acetyl}-3,9-diazaspiro[5.5]undec-3-yl)furan-2(5H)-one] showed an IC50 of 0.379 µM.
